Results on two molecules are retold here after patent US20180228711A1, “3-(4-HYDROXYPHENYL) PROPANOIC ACID AMIDE FOR USE IN TISSUE REPAIR AND/OR SKIN BRIGHTENING” (NMETICS IVS, priority 2015, published 2018).

What all share (format): cell-based
One assay has as its system B10F16 mouse melanocytes. Description: skin de-pigmentation assay (cell pellet colour intensity). As to the method: The assay was standardized using B10F16 mouse melanocytes with cell numbers at a density ranging from 5×10^4 to 1×10^5 cells per ml. […] The following day the cells were pre-treated with 80 μM of PA and 10 μM+control for 2 h, 24 h, 72 h and 96 h.
Cells were then collected, counted for cell number and equal numbers were pelleted. The cell pellet was visually observed for colour intensity and quantified. The same cell pellet was then used for protein extraction and immunoblot analysis.
Test solution preparation: Stock solutions of the test compound are prepared by dissolving in DMSO. The stock solutions were filter sterilized, stored in fridge at 4° C., and were used for experiments by dilution it in the cell culture medium as required.
Mouse melanocytes (B10F16 cell line) were maintained in Dulbecco's modified Eagle's medium (DMEM; Invitrogen) supplemented with 10% foetal bovine serum (v/v; Invitrogen), 2 mM glutamine, and 1% non-essential amino-acids.
Cells were sub-cultured at 37° C., 5% CO2 and 95% humidity, were fed approximately 16 h prior to each assay and cell number was determined in duplicates using a Coulter Z2 counter (Beckman Coulter). Mouse melanocytes were sub-cultured when they reached confluence at a split ratio 1:4.

The subject of assay [1] is human fibroblast cells. As to the kind of experiment: bi-directional scratch assay (cell migration). To be noted: fibroblasts pre-treated with PA 80 μM for three days; bidirectional scratch. As to the method:
Fibroblasts were pre-treated with PA (80 μM) for three days before performing the scratch assay. Migration was quantified by a micrometer scale (see FIG. 3).
(§1) Delicate cell monolayers at confluency are mechanically disrupted leaving an area devoid of cells. This procedure is accomplished by a “scrape” made on the cells and later advancement of the adjacent cells into the open area by cell mechanical migration, which is monitored by microscopy. Depending on the cell type, the covering process can take from many hours to less than a day, which is entirely dependent on the type of cells and extent of the scrape. The rate or the extent of migration of the cells (often termed as repopulation rate) can be calculated by a series of photomicrographs.
• Plate fibroblasts at a density 1×10^4 in 35 mm tissue culture plates and incubate for three days using novel test compounds with a control at 37° C., 5% CO2. • At confluency, displace a group of cells within the monolayer by making one streak using a sterile pipette tip. • Photograph under phase contrast microscopy sequentially at an interval of 19 hrs post scraping. • Using an ocular micrometer measure the scrape size at each time point. • Evaluate statistical significance by Student's t test. • Observe significant differences in scrape repairin PA pre-treatment on fibroblasts.

Assay [2] has as its system fibroblasts embedded in collagen lattice. As to the kind of experiment: free floating collagen lattice contraction assay. To be noted: PA pre-treated embedded fibroblasts; two independent experiments. On the procedure: Collagen type I from bovine skin can be purchased from IBFB Pharma GmbH, Leipzig, Germany and is prepared according to the distributed protocols.
Cells are trypsinized, suspended in complete growth medium and carefully mixed in the collagen solution (collagen in 0.9×DMEM, 10% FCS, 0.2 mM NaOH, prepared at room temperature). Final cell concentrations might range from 0.8×10^4 to 3×10^5 cells/ml lattice. Final concentration of collagen might range from 0.3-0.6 mg/ml lattice.
After mixing, the solution is placed onto bacteriological Petri dishes and immediately put back into the incubator.
Half an hour after polymerization in the incubator, the lattices are carefully detached from the borders of the dishes using a pipette tip. It is important that the Free Floating Collagen Lattices “swim” freely in the medium.
Measurement of the diameter is performed at different time points depending on cell type and seeded cell number. Measurement can be done using a scale paper. From the diameter the area of the collagen lattice can be calculated and their size can be compared at different time points.
Production of collagen lattices: • Estimated time for 20 lattices=1 h conduction plus 1 h until medium addition. • Per assay, 20 empty 35 mm cell culture dishes were pre-warmed to 37° C. […]

A further assay has as its system fibroblast cells. Description: Boyden chamber chemotactic migration assay. To be noted: PA treated vs controls; three independent assays. On the procedure:
48-well Microchemotaxis Chamber Protocol
NOTE: The following directions assume that you are working with polycarbonate filters.
• 1. Adjust a variable-volume micropipette with a 1 mm tip so that the ejected liquid fills a bottom well. The well will hold 25 to 26 μL. A slight positive meniscus should form when the well is filled; this prevents air bubbles from being trapped when the filter is applied. • 2. Orient the bottom plate on a flat surface so that the NP trademark is at the upper left. Warm chemo-attractants or control reagents to about 37° C. and de-gas them by vortex or vacuum. Fill the bottom wells, completing the 48 wells in no more than 5 minutes, to prevent excessive evaporation. • 3. Cut 1 mm off the corner of a filter membrane and orient it with the cut corner at the upper left. Lift the filter by the ends with two forceps, hold it evenly over the filled wells, and lower it onto them, allowing the middle portion of the filter to make contact first. The filter position can be adjusted at this point if necessary, but note that too much movement will cause contamination between wells. • 4. Apply the silicone gasket with its cut corner at the upper left, then the top plate, aligning its NP trademark with the trademark on the bottom plate. […] With your free hand, apply and tighten the thumb nuts until finger tight.
• 1. […]

Assay [3] has as its system human fibroblast cells. Description: uni-directional scratch assay (cell migration). To be noted: fibroblasts pre-treated with PA 80 μM for three days; after 24 hrs. On the procedure:
Fibroblasts were pre-treated with PA (80 μM) for three days before performing the scratch assay.
as §1
• Plate fibroblasts at a density 1×10^4 in 35 mm tissue culture plates and incubate for three days using novel test compounds with a control at 37° C., 5% CO2. • At confluency, displace a group of cells within the […] measure the scrape size at each time point. • Evaluate statistical significance by Student's t test. • Observe significant differences in scrape repairin PA pre-treatment on fibroblasts.

`Oc1ccc(O)cc1` [+C, Hydroquinone, reference compound]: the “cell pellet colour, % lighter relative to −control” value with B10F16 mouse melanocytes (Hydroquinone at 10 μM, after 96 hrs) is 78% lighter (78% relative to −control).

Turning to `NC(=O)CCc1ccc(O)cc1` [PA, 3-(4-hydroxyphenyl)propanoic acid amide], in the assay on B10F16 mouse melanocytes (PA 80 μM, visual observation), the “colour change of cell pellet (inhibition of melanin production)” value is “distinct color change from dark to pale”. The “cell pellet colour, % lighter relative to −control” value in the assay with B10F16 mouse melanocytes (compound at 80 μM, after 96 hrs) was 50% lighter (relative to − control). In addition, the “cell pellet colour, % lighter relative to +control” value in the assay on B10F16 mouse melanocytes (compound at 80 μM, after 96 hrs, relative to hydroquinone 10 μM) is given as 39% lighter (relative to +control). Besides, in the assay on human fibroblast cells [1], the “improvement of tissue migration over the untreated” value is “about 37%”. In assay [2], the “improvement of collagen contraction” value is reported as 85%. Moreover, the “enhancement of chemotactic migration towards chemo-attractants (factor)” value in the assay on fibroblast cells came out at 2.7. Further, the “enhancement of migration (tissue repair) in vitro, uni-directional cell migration” value with human fibroblast cells [3] is reported as “more than 60%”.
